From ChEMBL document CHEMBL1125412, “NG-allyl- and NG-cyclopropyl-L-arginine: two novel inhibitors of macrophage nitric oxide synthase” (J Med Chem, 1992)

Tests used:
[1] = Compound was tested for the inhibition of inducible murine macrophage nitric oxide(NO) synthase
[2] = Compound was tested for the inhibition of inducible murine macrophage expressed as inactivation constant
[3] = Compound was tested for the inhibition of inducible murine macrophage nitric oxide(NO) synthase, activity expressed as inhibitory constant

Compound	Ki [1] [µM]	K inact [2] [min⁻¹]	Ki [3] [µM]
N=C(NCCC[C@H](N)C(=O)O)NC1CC1	7.7	–	–
C=CC/N=C(/N)NCCC[C@H](N)C(=O)O [5-N-ALLYL-ARGININE]	2.1	0.026	3.4
CNC(=N)NCCC[C@H](N)C(=O)O [TILARGININE]	–	0.05	4.2
